According to patent US12378543B2, “Compositions for hemolysis and coagulation regulation and stabilization of extracellular vesicles” (STRECK LLC, priority 2017, dated 2025):

System: cell-free RNA (cfRNA)
Test: Total cfRNA in plasma after whole blood storage (Qubit RNA HS fluorometric analysis)
Settings: preservative added singly on ACD-A background, 7 days at room temperature, FIG. 6
Excerpt: Plasma was isolated and cfRNA extracted using a commercially available kit (Qiagen, QIAamp Circulating Nucleic Acid Isolation Kit). Resultant cfRNA was quantified using the Qubit RNA HS Assay (Invitrogen). Results are the mean with standard deviation from 3 healthy donors.
The working hypothesis for the container (e.g., blood collection tube) that comprises a composition of the disclosure was that cell-free RNA (cfRNA), including messenger RNA, micro-RNA, non-coding RNA, etc., is stable in blood plasma via encapsulation within extracellular vesicles (EVs). Thus, because aspects of the disclosure are directed to stabilizing draw-time concentrations of cfRNA, the goal was to maintain the initial concentration of EVs. […] In the experiments, the functional components of the RNAx BCT are the preservatives imidazolidinyl urea (IDU) and α-cyclodextrin. The experiments were designed to test whether each of the foregoing components acted singly (additive effect) or whether the combination provided an unexpected, more pronounced outcome (synergistic effect).
On the background of the basal anti-coagulant, ACD-A, each of the preservatives (i.e., IDU and α-cyclodextrin) was added singly (at the same concentration utilized in the RNAx BCT) or together. […]

SMILES: OC[C@H]1O[C@@H]2O[C@H]3[C@H](O)[C@@H](O)[C@@H](O[C@H]4[C@H](O)[C@@H](O)[C@@H](O[C@H]5[C@H](O)[C@@H](O)[C@@H](O[C@H]6[C@H](O)[C@@H](O)[C@@H](O[C@H]7[C@H](O)[C@@H](O)[C@@H](O[C@H]1[C@H](O)[C@H]2O)O[C@@H]7CO)O[C@@H]6CO)O[C@@H]5CO)O[C@@H]4CO)O[C@@H]3CO [α-cyclodextrin]
- effect on increases in total cfRNA levels (in words): did limit increases in levels of cfRNA
